This note sets out measurements from the SangsterLogP compilation.

The first series can be described thus: method code SF, from DOI: 10.1016/0223-5234(90)90118-m.
The term logP denotes the decadic logarithm of the partition coefficient of the neutral form, usually between octanol and water. Low readings indicate a more hydrophilic compound, high ones a more lipophilic compound. Consider `COc1ccc(C(=O)Nc2ccc3nn(C4CCCC4)nc3c2)cc1`, for which the logP amounted to 4.03. Molecule `CS(=O)(=O)Nc1ccc2nn(C3CCCC3)nc2c1` had a logP of 2.44. In turn, `O=C(Nc1ccc2nn(C3CCCC3)nc2c1)c1ccc(C(F)(F)F)cc1` came in with a logP of 4.95.

Molecule `O=C(Nc1ccc2nn(C3CCCC3)nc2c1)c1ccccc1` gave a logP of 3.85. The same measure, in the same setting: as for `CCOC(=O)Nc1ccc2nn(C3CCCC3)nc2c1`, the figure is 3.43. In turn, `O=C(Nc1ccc2nn(C3CCCC3)nc2c1)C(Cl)(Cl)Cl` registered a logP of 4.12. `O=C(Nc1ccc2nn(C3CCCC3)nc2c1)c1ccc([N+](=O)[O-])cc1`: the logP came to 3.75. Regarding `CC(C)COC(=O)Nc1ccc2nn(C3CCCC3)nc2c1`, the logP came to 4.28. In turn, `O=C(CCl)Nc1ccc2nn(C3CCCC3)nc2c1` returned a logP of 2.78.

In turn, `CC(=O)Nc1ccc2nn(C3CCCC3)nc2c1` showed a logP of 2.45.

Assay in a further series: not given
Molecule `CC(=O)N(C(C)=O)c1ccc2nn(C3CCCC3)nc2c1` showed a logP of 2.73. `O=C(Nc1ccc2nn(C3CCCC3)nc2c1)C(Cl)Cl` came in with a logP of 3.4. Molecule `COc1cc(C(=O)Nc2ccc3nn(C4CCCC4)nc3c2)cc(OC)c1OC` displayed a logP of 3.87. As to `CC(C)(C)C(=O)c1cccc2nn(C3CCCC3)nc12`, the logP is 3.4.

In the case of `Cc1ccc(S(=O)(=O)Nc2ccc3nn(C4CCCC4)nc3c2)cc1`, the logP stood at 3.91. Still for that read-out and setting: then `O=C(Nc1ccc2nn(C3CCCC3)nc2c1)c1ccc(Cl)cc1`, with 4.11; and `O=C(Nc1ccc2nn(C3CCCC3)nc2c1)c1ccc(Cl)c(Cl)c1`, with 5.32; and `O=[N+]([O-])c1ccc(S(=O)(=O)Nc2ccc3nn(C4CCCC4)nc3c2)cc1`, with 3.82.
